# Paper PMC5080841 (Journal of medicinal chemistry, 2016)
# Columns and labels:
# [1] = test system: Caenorhabditis elegans infection model; conditions: previous work; cited from earlier work
# P. aeruginosa HemO = biological target: T1, P. aeruginosa HemO (Pseudomonas aeruginosa, UniProt O69002); conditions: read-out: binding affinity for HemO; previous work; cited from earlier work
# T1 sequence (O69002 1-198): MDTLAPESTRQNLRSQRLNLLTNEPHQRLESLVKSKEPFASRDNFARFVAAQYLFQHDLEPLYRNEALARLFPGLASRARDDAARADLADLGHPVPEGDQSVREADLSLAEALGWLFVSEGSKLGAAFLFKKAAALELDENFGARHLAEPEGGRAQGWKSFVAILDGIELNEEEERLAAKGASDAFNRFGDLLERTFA
# P. aeruginosa = conditions: previous work; cited from earlier work
# HemO = HemO (Pseudomonas aeruginosa, UniProt O69002); assay: STD NMR binding epitope; conditions: relative to the strongest interacting proton
Structure (SMILES),curing activity in Caenorhabditis elegans infection model [1],Kd (P. aeruginosa HemO),MIC50 against P. aeruginosa (P. aeruginosa),relative STD interaction of the benzylimine proton (HemO),relative STD interaction of the para-position proton (HemO)
"CN(C)c1ccc(/C=N/NC(=N)N)cc1.Cl [Compound 1, (E)-2-(4-(Dimethylamino)benzylidene)hydrazine-carboximidamide Hydrochloride]",exhibited curing activity,31.2 µM,250 µg/mL,–,–
"Cl.NC(N)=N/N=C/c1cccc(OCc2ccccc2)c1 [Compound 24, (E)-2-(3-(Benzyloxy)benzylidene)hydrazinecarboximidamide Hydrochloride]",–,–,–,100%,82%
